Laboratory results reported in EP0049683A2, “Imidazo-rifamycines, process for their preparation, pharmaceutical preparations containing them and their use” (CIBA-GEIGY AG, priority 1980, dated 1982).
≈ marks a conversion by molar mass, not a printed value.

How the values were obtained:
Test in all cases: Agar dilution MIC in DST agar (Ericsson and Sherris)
Assay type in all cases: cell-based
Escherichia coli 2018 = settings: for MIC: Escherichia coli, 2018, in vitro, read-out: MIC Esch. 2018; for MIC Esch. 2018: in vitro
Excerpt: (§1) Die antibiotische Aktivität der Testverbindungen in vitro wurde durch die Agarverdünnungsmethode nach Ericsson, H.M., und Sherris, S.C., 1971, Acta Path. Microb. Scand. Section B, Suppl. No. 217, Bd. 1-90, in DST Agara ermittelt. Die gefundenen, das Wachstum der Testorganismen noch hemmenden Minimalkonzentrationen (MIC = minimum inhibiting concentrations) werden in Mikrogramm pro Milliliter (µg/ml) für die geprüften Verbindungen in der Tabelle 1 angegeben.

Escherichia coli 205 = settings: for MIC: Escherichia coli, 205, in vitro, read-out: MIC Esch. 205; for MIC Esch. 205: in vitro
Excerpt: as §1

Proteus morganii 2359 = settings: for MIC: Morganella morganii, 2359, in vitro, read-out: MIC Prot. 2359; for MIC Prot. 2359: in vitro
Excerpt: as §1

Proteus morganii 1518 = settings: for MIC: Morganella morganii, 1518, in vitro, read-out: MIC Prot. 1518; for MIC Prot. 1518: in vitro
Excerpt: as §1

[1] = system: Pseudomonas aeruginosa K 799/61; settings: for MIC: Pseudomonas aeruginosa, K799/61, read-out: MIC Pseu. 799; for MIC Pseu. 799: in vitro, agar dilution, DST agar
Excerpt: as §1

[2] = system: Staphylococcus aureus 10B; settings: in vitro; for MIC: Staphylococcus aureus, 10B, read-out: MIC Staph. 10B
Excerpt: as §1

[3] = system: Salmonella Typhimurium 277; settings: in vitro; for MIC: Salmonella enterica, TYPHIMURIUM, read-out: MIC Salm. 277
Excerpt: as §1

[4] = system: Staphylococcus aureus 2999; settings: for MIC: Staphylococcus aureus, 2999, in vitro, read-out: MIC Staph. 2999; for MIC Staph. 2999: in vitro
Excerpt: as §1

Compound | MIC (Escherichia coli 2018) [µg/mL] | MIC (Escherichia coli 205) [µg/mL] | MIC (Proteus morganii 2359) [µg/mL] | MIC (Proteus morganii 1518) [µg/mL] | MIC [1] [µg/mL] | MIC [2] [µg/mL] | MIC [3] [µg/mL] | MIC [4] [µg/mL] | MIC Esch. 2018 (Escherichia coli 2018) [µg/mL] | MIC Esch. 205 (Escherichia coli 205) [µg/mL] | MIC Prot. 2359 (Proteus morganii 2359) [µg/mL] | MIC Prot. 1518 (Proteus morganii 1518) [µg/mL] | MIC Pseu. 799 [1] [µg/mL] | MIC Staph. 10B [2] [µg/mL] | MIC Salm. 277 [3] [µg/mL] | MIC Staph. 2999 [4] [µg/mL]
CO[C@H]1/C=C/O[C@@]2(C)Oc3c(C)c(O)c4c(O)c(c5[nH]c(N6CCN(CCC(C)C)CC6)nc5c4c3C2=O)NC(=O)/C(C)=C\C=C\[C@H](C)[C@H](O)[C@@H](C)[C@@H](O)[C@@H](C)[C@H](OC(C)=O)[C@@H]1C [Verbindung 40, 4-[4-(3-Methylbutyl)piperazinyl]-imidazolo[4,5-c]rifamycin SV] | 8 (≈ 9.13 µM) | 8 (≈ 9.13 µM) | 8 (≈ 9.13 µM) | 8 (≈ 9.13 µM) | 16 (≈ 18.3 µM) | 0.005 (≈ 0.00571 µM) | 32 (≈ 36.5 µM) | 0.005 (≈ 0.00571 µM) | – | – | – | – | – | – | – | –
CCN1CCN(c2nc3c4c(O)c5c(O)c(C)c6c(c5c3[nH]2)C(=O)[C@@](C)(O/C=C/[C@H](OC)[C@@H](C)[C@@H](OC(C)=O)[C@H](C)[C@H](O)[C@H](C)[C@@H](O)[C@@H](C)/C=C/C=C(/C)C(=O)N4)O6)CC1 [Verbindung 31, 4-(4-Ethylpiperazinyl)-imidazolo[4,5-c]rifamycin SV] | – | – | – | – | – | – | – | – | 8 (≈ 9.59 µM) | 8 (≈ 9.59 µM) | 8 (≈ 9.59 µM) | 8 (≈ 9.59 µM) | 8 (≈ 9.59 µM) | 0.002 (≈ 0.0024 µM) | 32 (≈ 38.4 µM) | 0.001 (≈ 0.0012 µM)
4-(4-Morpholinocarbonylmethylpiperazinyl)-imidazolo-[4,5-c]rifamycin SV [Verbindung 73] | – | – | – | – | – | – | – | – | 128 | 128 | 32 | 32 | 128 | 0.05 | 128 | 0.05
CO[C@H]1/C=C/O[C@@]2(C)Oc3c(C)c(O)c4c(O)c(c5nc(N6CCCCCC6)[nH]c5c4c3C2=O)NC(=O)/C(C)=C\C=C\[C@H](C)[C@H](O)[C@@H](C)[C@@H](O)[C@@H](C)[C@H](OC(C)=O)[C@@H]1C [Verbindung 27, 4-(1-Perhydroazepinyl)-imidazolo[4,5-c]rifamycin SV] | – | – | – | – | – | – | – | – | 8 (≈ 9.77 µM) | 8 (≈ 9.77 µM) | 8 (≈ 9.77 µM) | 2 (≈ 2.44 µM) | 8 (≈ 9.77 µM) | 0.001 (≈ 0.00122 µM) | 32 (≈ 39.1 µM) | 0.001 (≈ 0.00122 µM)
4-[4-(l,3-Dimethylpropyl)-piperazinyl]-imidazolo[4,5-c]-rifamycin SV [Verbindung 43] | – | – | – | – | – | – | – | – | 4 | 8 | 8 | 8 | 16 | 0.01 | 32 | 0.005
CO[C@H]1/C=C/O[C@@]2(C)Oc3c(C)c(O)c4c(O)c(c5nc(N6CCN(C7CCCC7)CC6)[nH]c5c4c3C2=O)NC(=O)/C(C)=C\C=C\[C@H](C)[C@H](O)[C@@H](C)[C@@H](O)[C@@H](C)[C@H](OC(C)=O)[C@@H]1C [Verbindung 50, 4-(4-Cyclopentylpiperazinyl)-imidazolo[4,5-c]rifamycin SV] | 8 (≈ 9.15 µM) | 8 (≈ 9.15 µM) | 8 (≈ 9.15 µM) | 8 (≈ 9.15 µM) | 8 (≈ 9.15 µM) | 0.01 (≈ 0.0114 µM) | 32 (≈ 36.6 µM) | 0.01 (≈ 0.0114 µM) | – | – | – | – | – | – | – | –
4-(4-Isopropylcarbamoylmethylpiperazinyl)-imidazolo-[4,5-c]rifamycin SV [Verbindung 72] | – | – | – | – | – | – | – | – | 32 | 32 | 32 | 32 | 64 | 0.05 | 128 | 0.05
CCCN(CC1CC1)c1nc2c3c(O)c4c(O)c(C)c5c(c4c2[nH]1)C(=O)C(C)(OC=CC(OC)C(C)C(OC(C)=O)C(C)C(O)C(C)C(O)C(C)C=CC=C(C)C(=O)N3)O5 (stereo not drawn) [Verbindung 11, 4-(N-Cyclopropylmethyl-N-propylamino)-imidazolo[4,5-c]rifamycin SV] | 8 (≈ 9.6 µM) | 8 (≈ 9.6 µM) | 8 (≈ 9.6 µM) | 2 (≈ 2.4 µM) | 8 (≈ 9.6 µM) | 0.01 (≈ 0.012 µM) | 32 (≈ 38.4 µM) | 0.01 (≈ 0.012 µM) | – | – | – | – | – | – | – | –
4-(4-Methoxycarbonylmethylpiperazinyl)-imidazolo[4,5-c]-rifamycin SV [Verbindung 71] | – | – | – | – | – | – | – | – | 32 | 32 | 32 | 32 | 128 | 0.02 | 128 | 0.02
4-(4-Butylpiperazinyl)-imidazolo[4,5-c]rifamycin SV [Verbindung 33] | – | – | – | – | – | – | – | – | 2 | 8 | 4 | 4 | 32 | 0.001 | 32 | 0.001
COC1C=COC2(C)Oc3c(C)c(O)c4c(O)c(c5nc(N(C)C6CCCC6)[nH]c5c4c3C2=O)NC(=O)C(C)=CC=CC(C)C(O)C(C)C(O)C(C)C(OC(C)=O)C1C (stereo not drawn) [Verbindung 10, 4-(N-Cyclopentyl-N-methylamino)-imidazolo[4,5-c]rifamycin SV] | 4 (≈ 4.88 µM) | 4 (≈ 4.88 µM) | 4 (≈ 4.88 µM) | 4 (≈ 4.88 µM) | 8 (≈ 9.77 µM) | 0.005 (≈ 0.00611 µM) | 16 (≈ 19.5 µM) | 0.005 (≈ 0.00611 µM) | – | – | – | – | – | – | – | –
CO[C@H]1/C=C/O[C@@]2(C)Oc3c(C)c(O)c4c(O)c(c5[nH]c(N6CCCCC6)nc5c4c3C2=O)NC(=O)/C(C)=C\C=C\[C@H](C)[C@H](O)[C@@H](C)[C@@H](O)[C@@H](C)[C@H](OC(C)=O)[C@@H]1C [Verbindung 21, 4-Piperidino-imidazolo[4,5-c]rifamycin SV] | 4 (≈ 4.97 µM) | 4 (≈ 4.97 µM) | 4 (≈ 4.97 µM) | 4 (≈ 4.97 µM) | 16 (≈ 19.9 µM) | 0.005 (≈ 0.00621 µM) | 16 (≈ 19.9 µM) | 0.005 (≈ 0.00621 µM) | – | – | – | – | – | – | – | –
CC=C(CC)CN1CCN(c2nc3c([nH]2)c2c(O)c4c(O)c(C)c5c(c43)C(=O)[C@@](C)(O/C=C/[C@H](OC)[C@@H](C)[C@@H](OC(C)=O)[C@H](C)[C@H](O)[C@H](C)[C@@H](O)[C@@H](C)/C=C/C=C(/C)C(=O)N2)O5)CC1 [Verbindung 47, 4-[4-(2-Ethyl-2-butenyl)-piperazinyl]-imidazolo[4,5-c]-rifamycin SV] | 4 (≈ 4.5 µM) | 8 (≈ 9.01 µM) | 4 (≈ 4.5 µM) | 4 (≈ 4.5 µM) | 32 (≈ 36 µM) | 0.005 (≈ 0.00563 µM) | 16 (≈ 18 µM) | 0.005 (≈ 0.00563 µM) | – | – | – | – | – | – | – | –
4-[4-(1-Methyl-2-dimethylaminoethyl)-piperazinyl]-imidazolo[4,5-c]rifamycin SV [Verbindung 74] | – | – | – | – | – | – | – | – | 32 | 128 | 32 | 32 | 128 | 0.5 | 128 | 0.5
CO[C@H]1/C=C/O[C@@]2(C)Oc3c(C)c(O)c4c(O)c(c5[nH]c(N6CCC(N7CCCCC7)CC6)nc5c4c3C2=O)NC(=O)/C(C)=C\C=C\[C@H](C)[C@H](O)[C@@H](C)[C@@H](O)[C@@H](C)[C@H](OC(C)=O)[C@@H]1C [Verbindung 24, 4-(4-Piperidino-1-piperidyl-)-imidazolo[4,5-c]rifamycin SV] | 4 (≈ 4.5 µM) | 8 (≈ 9.01 µM) | 4 (≈ 4.5 µM) | 8 (≈ 9.01 µM) | 16 (≈ 18 µM) | 0.05 (≈ 0.0563 µM) | 16 (≈ 18 µM) | 0.01 (≈ 0.0113 µM) | – | – | – | – | – | – | – | –
CCN(CCO)c1nc2c([nH]1)c1c(O)c3c(O)c(C)c4c(c32)C(=O)[C@@](C)(O/C=C/[C@H](OC)[C@@H](C)[C@@H](OC(C)=O)[C@H](C)[C@H](O)[C@H](C)[C@@H](O)[C@@H](C)/C=C/C=C(/C)C(=O)N1)O4 [Verbindung 14, 4-[N-Ethyl-N-(2-hydroxyethyl)-amino]-imidazolo[4,5-c]rifamycin SV] | 16 (≈ 19.8 µM) | 8 (≈ 9.89 µM) | 16 (≈ 19.8 µM) | 16 (≈ 19.8 µM) | 16 (≈ 19.8 µM) | 0.05 (≈ 0.0618 µM) | 32 (≈ 39.6 µM) | 0.01 (≈ 0.0124 µM) | – | – | – | – | – | – | – | –
4-(4-Propyliperazinyl)-imidazolo[4,5-c]rifamycin SV [Verbindung 32] | – | – | – | – | – | – | – | – | 8 | 8 | 8 | 8 | 8 | 0.001 | 32 | 0.001
4-(4-Isobutyl-2,5-dimethyl-piperazinyl)-imidazolo[4,5-c]-rifamycin SV [Verbindung 76] | – | – | – | – | – | – | – | – | 8 | 32 | 8 | 8 | 32 | 0.01 | 32 | 0.01
